“And” between values parts separate entries of the source, which are not always exact repeats. Equal entries are not always repeated.
Legend:
[1] = tested on: patients with schizophrenia or schizoaffective disorder; test: Psychiatric rating scales (PANSS, CGI, Calgary, SAS, BAS, AIMS, Quality of Life); same trial; type: in vivo, human; set-up: CGI-S score / Calgary Depression Scale, difference PG vs placebo / Heinrich Carpenter subscore Interpersonal and social work, difference PG vs placebo / Heinrich Carpenter subscore Occupational role function, difference PG vs placebo / Heinrich Carpenter subscore Other residual symptoms, difference PG vs placebo: scale not given here; conditions: for Heinrich Carpenter Quality of Life Scale, difference PG vs placebo: not significant (p=0.32); for PANSS General subscore / PANSS Negative symptoms subscore / PANSS Positive symptoms subscore / PANSS total score: mean; for CGI-I score: Week 8 (final), 2=much improved, 3=minimally improved, n = 9
Protocol: Study Design and Subjects. Disclosed herein is a placebo-controlled, double-blind, parallel group, randomized trial of adjunctive pregnenolone for the treatment of cognitive and negative symptoms in patients with schizophrenia or schizoaffective disorder. […] Patients received a total of 6 study visits, which took place every two weeks. […] The trial was conducted at a single site, the Durham Veterans Affairs Medical Center in Durham, N.C. The protocol was approved by the local institutional review board and conducted under FDA Investigational New Drug (IND) #71,768. The ClinicalTrials.gov number for this study is NCT00560937.
During the screening visit (Visit 1), patients received a physical exam, vital signs, and electrocardiogram (EKG), as well as baseline laboratory measures consisting of serum electrolytes, glucose, creatinine, blood urea nitrogen (chemistry 7 panel), liver function tests, complete blood count (CBC), urinalysis, urine toxicology test, thyroid stimulating hormone (TSH), and prolactin, and serum pregnancy test if female. These tests were also repeated at the completion of the study (Visit 6). In addition, patients received an interim EKG 4 weeks post-randomization, as well as a serum pregnancy test if female (Visit 4). Patients also received a chemistry 7 panel, CBC, and liver function tests at Visits 2, 3, 4, and 5 (i.e., at all study visits). Psychiatric symptoms were assessed at baseline using the Scale for the Assessment of Negative Symptoms (Andreasen, 1983), the Positive and Negative Symptom Scale (PANSS; Kay et al., 1987), the Calgary Depression Rating Scale (CDRS; Addington et al., 1990), the Clinical Global Impressions Improvement (CGI-I) and Severity (CGI-S) scales, the Barnes Akathisia Scale (BAS; Barnes, 1989), the Simpson Angus Scale for Extrapyramidal Symptoms (SAS; Simpson & Angus, 1970), the Quality of Life Scale (QOL; Heinrichs et al., 1984), and the Hillside Side Effects Scale. One research nurse with five years of experience in the conduction of schizophrenia clinical trials completed both psychiatric and cognitive assessments throughout the study, and was trained to one point of divergence on each PANSS item.

[2] = tested on: subjects with mild traumatic brain injury (TBI); test: Total cholesterol in mild TBI subjects, pregnenolone 8 weeks (100, 300, then 500 mg/day oral) versus placebo; type: in vivo, human; conditions: baseline to study completion (8 weeks), t-test of change scores p=0.035, FIG. 3
From the text: Ten (10) additional subjects with mild TBI were given a placebo.

[3] = Difference in changes from Week 0-8
[4] = Difference in changes from Week 0-8, points
[5] = Difference in changes from Week 0-8, points, listed as pregnenolone

**Q.** Which “CGI-S, change” value ([1]; Changes from Week 0-8) does the source give for `CC(=O)[C@H]1CC[C@H]2[C@@H]3CC=C4C[C@@H](O)CC[C@]4(C)[C@H]3CC[C@]12C` [PG, pregnenolone] here?
**A.** The value was −0.1.

**Q.** And the “Calgary Depression Scale, change” value ([1]; Changes from Week 0-8, n = 7)?
**A.** The value was −1.6.

**Q.** What about the “AIMS, change” value ([1]; Changes from Week 0-8, n = 8) of the same molecule?
**A.** Its value is −1.0.

**Q.** And the “Barnes Akathisia Scale, change” value ([1]; Changes from Week 0-8, n = 8)?
**A.** Its value is −0.4.

**Q.** And the “Heinrich Carpenter Quality of Life Scale, change” value ([1]; Changes from Week 0-8, n = 8)?
**A.** The value was 7.9.

**Q.** And the “Heinrich Carpenter subscore Interpersonal and social work, change” value ([1]; Changes from Week 0-8, n = 8)?
**A.** The value was 5.4.

**Q.** What about the “Heinrich Carpenter subscore Occupational role function, change” value ([1]; Changes from Week 0-8, n = 8) of the same molecule?
**A.** The value was 0.9.

**Q.** What about the “Heinrich Carpenter subscore Other residual symptoms, change” value ([1]; Changes from Week 0-8, n = 8) of the same molecule?
**A.** The value was 1.6.

**Q.** What about the “PANSS General, change” value ([1]; Changes from Week 0-8, n = 8) of the same molecule?
**A.** Its value is −4.5.

**Q.** And the “PANSS Negative symptoms, change” value ([1]; Changes from Week 0-8, n = 8)?
**A.** The value was −2.8.

**Q.** And the “PANSS Positive symptoms, change” value ([1]; Changes from Week 0-8, n = 8)?
**A.** Its value is −2.6.

**Q.** What about the “PANSS total, change” value ([1]; Changes from Week 0-8, n = 8) of the same molecule?
**A.** The value was −9.9.

**Q.** What about the “Simpson-Angus Scale, change” value ([1]; Changes from Week 0-8, n = 8) of the same molecule?
**A.** Its value is −0.1.

**Q.** And the “AIMS, difference PG vs placebo” value [1, 3]?
**A.** The value was −0.6 ± 0.7.

**Q.** What about the “Calgary Depression Scale, difference PG vs placebo” value [1, 3] of the same molecule?
**A.** The value was 0.4 ± 1.6.

**Q.** What about the “Heinrich Carpenter subscore Interpersonal and social work, difference PG vs placebo” value [1, 3] of the same molecule?
**A.** Its value is 3.6 ± 3.2.

**Q.** What about the “Heinrich Carpenter subscore Occupational role function, difference PG vs placebo” value [1, 3] of the same molecule?
**A.** Its value is 0.8 ± 0.6.

**Q.** What about the “Heinrich Carpenter subscore Other residual symptoms, difference PG vs placebo” value [1, 3] of the same molecule?
**A.** Its value is 0.9 ± 2.2.

**Q.** What about the “PANSS General, difference PG vs placebo” value [1, 3] of the same molecule?
**A.** Its value is −1.3 ± 2.1.

**Q.** What about the “PANSS Positive symptoms, difference PG vs placebo” value [1, 3] of the same molecule?
**A.** Its value is −1.6 ± 0.8.

**Q.** What about the “Simpson-Angus Scale, difference PG vs placebo” value [1, 3] of the same molecule?
**A.** Its value is −0.2 ± 0.4.

**Q.** And the “PANSS Negative symptoms, difference PG vs placebo” value [1, 4]?
**A.** The value was −1.5 ± 1.4.

**Q.** And the “PANSS Negative symptoms, difference PG vs placebo” value [1, 5]?
**A.** The value was 1.53.

**Q.** What about the “PANSS total, difference PG vs placebo” value ([1]; Difference in changes from Week 0-8, points, not significant (p=0.24)) of the same molecule?
**A.** The value was −4.4 ± 3.6.

**Q.** And the “Heinrich Carpenter Quality of Life Scale, difference PG vs placebo” value [1, 4]?
**A.** Its value is 5.3 ± 5.1.

**Q.** And the “Heinrich Carpenter Quality of Life Scale, difference PG vs placebo” value [1, 5]?
**A.** Its value is 5.27±5.07 and 5.27.

**Q.** What about the AIMS score ([1]; Week 0 (baseline)) of the same molecule?
**A.** The AIMS score was 1.6.

**Q.** What about the “Barnes Akathisia Scale score” value ([1]; Week 0 (baseline)) of the same molecule?
**A.** The value was 0.4.

**Q.** What about the CGI-S score ([1]; Week 0 (baseline)) of the same molecule?
**A.** Its CGI-S score is 4.0.

**Q.** What about the “Calgary Depression Scale score” value ([1]; Week 0 (baseline)) of the same molecule?
**A.** The value was 2.4.

**Q.** What about the “Heinrich Carpenter Quality of Life Scale score” value ([1]; Week 0 (baseline)) of the same molecule?
**A.** Its value is 47.5.

**Q.** What about the “Heinrich Carpenter subscore Interpersonal and social work” value ([1]; Week 0 (baseline)) of the same molecule?
**A.** The value was 17.9.

**Q.** What about the “Heinrich Carpenter subscore Occupational role function” value ([1]; Week 0 (baseline)) of the same molecule?
**A.** Its value is 1.9.

**Q.** What about the “Heinrich Carpenter subscore Other residual symptoms” value ([1]; Week 0 (baseline)) of the same molecule?
**A.** Its value is 27.8.

**Q.** And the “Simpson-Angus Scale score” value ([1]; Week 0 (baseline))?
**A.** Its value is 1.0.

**Q.** What about the CGI-S score ([1]; Week 0 (baseline), listed as pregnenolone) of the same molecule?
**A.** Its CGI-S score is 4.00±0.50.

**Q.** What about the “PANSS General subscore” value ([1]; Week 0 (baseline)) of the same molecule?
**A.** Its value is 35.5.

**Q.** What about the “PANSS Negative symptoms subscore” value ([1]; Week 0 (baseline)) of the same molecule?
**A.** The value was 23.4.

**Q.** What about the “PANSS Positive symptoms subscore” value ([1]; Week 0 (baseline)) of the same molecule?
**A.** Its value is 13.6.

**Q.** What about the PANSS total score ([1]; Week 0 (baseline)) of the same molecule?
**A.** The PANSS total score was 72.5.

**Q.** And the AIMS score ([1]; Week 4)?
**A.** Its AIMS score is 0.9.

**Q.** What about the “Barnes Akathisia Scale score” value ([1]; Week 4) of the same molecule?
**A.** Its value is 0.4.

**Q.** What about the “Simpson-Angus Scale score” value ([1]; Week 4) of the same molecule?
**A.** Its value is 1.3.

**Q.** What about the “PANSS General subscore” value ([1]; Week 4) of the same molecule?
**A.** Its value is 34.3.

**Q.** And the “PANSS Negative symptoms subscore” value ([1]; Week 4)?
**A.** The value was 23.2.

**Q.** And the “PANSS Positive symptoms subscore” value ([1]; Week 4)?
**A.** Its value is 12.8.

**Q.** What about the PANSS total score ([1]; Week 4) of the same molecule?
**A.** Its PANSS total score is 67.9.

**Q.** And the AIMS score ([1]; Week 8)?
**A.** Its AIMS score is 0.6.

**Q.** And the “Barnes Akathisia Scale score” value ([1]; Week 8)?
**A.** Its value is 0.0.

**Q.** And the “Calgary Depression Scale score” value ([1]; Week 8)?
**A.** The value was 0.9.

**Q.** And the “Heinrich Carpenter Quality of Life Scale score” value ([1]; Week 8)?
**A.** The value was 55.4.

**Q.** And the “Heinrich Carpenter subscore Interpersonal and social work” value ([1]; Week 8)?
**A.** Its value is 23.3.

**Q.** And the “Heinrich Carpenter subscore Occupational role function” value ([1]; Week 8)?
**A.** Its value is 2.8.

**Q.** And the “Heinrich Carpenter subscore Other residual symptoms” value ([1]; Week 8)?
**A.** The value was 29.4.

**Q.** And the “Simpson-Angus Scale score” value ([1]; Week 8)?
**A.** The value was 0.9.

**Q.** And the CGI-I score [1]?
**A.** Its CGI-I score is 2.11.

**Q.** And the CGI-I score ([1]; listed as pregnenolone)?
**A.** Its CGI-I score is 2.11±0.33 and 2.11.

**Q.** And the CGI-S score ([1]; Week 8 (post-treatment))?
**A.** Its CGI-S score is 3.9.

**Q.** What about the CGI-S score ([1]; Week 8 (post-treatment), listed as pregnenolone) of the same molecule?
**A.** The CGI-S score was 3.89±0.33.

**Q.** What about the “PANSS General subscore” value ([1]; Week 8) of the same molecule?
**A.** Its value is 31.2.

**Q.** What about the “PANSS Negative symptoms subscore” value ([1]; Week 8) of the same molecule?
**A.** Its value is 20.6.

**Q.** What about the “PANSS Positive symptoms subscore” value ([1]; Week 8) of the same molecule?
**A.** The value was 11.9.

**Q.** What about the PANSS total score ([1]; Week 8) of the same molecule?
**A.** Its PANSS total score is 63.6.

**Q.** What about the “Total cholesterol (percent change) compared to placebo” value [2] of the same molecule?
**A.** Its value is “statistically significant reduction”.

**Q.** What about the “Total cholesterol (percent change) compared to placebo” value ([2]; listed as pregnenolone) of the same molecule?
**A.** Its value is “reduced”.

Reference: patent US20120142645A1, “NEUROACTIVE STEROID COMPOSITIONS AND METHODS OF USE FOR LOWERING CHOLESTEROL” (priority 2009, published 2012)
